Measurements: ChEMBL document CHEMBL5113520, “From a Cone Snail Toxin to a Competitive MC4R Antagonist” (J Med Chem, 2022)
pKi: −log10 of the molar value. Where a SMILES comes first, the peptide text is derived from it. Bridges are numbered along the chain shown (N, C = ends). The star is where a group is joined. Carbamoyl = NC(=O)*

What was measured:
Type in all cases: cell-based
[1] = target: Melanocyte-stimulating hormone receptor (Homo sapiens, UniProt Q01726); experiment: Displacement of [125I]-NDP-alpha-MSH from human MC1R expressed in CHO cells by Topcount beta counter analysis; conditions: for Ki: read-out: pKi (converted)
Chain of Melanocyte-stimulating hormone receptor (Q01726 whole entry): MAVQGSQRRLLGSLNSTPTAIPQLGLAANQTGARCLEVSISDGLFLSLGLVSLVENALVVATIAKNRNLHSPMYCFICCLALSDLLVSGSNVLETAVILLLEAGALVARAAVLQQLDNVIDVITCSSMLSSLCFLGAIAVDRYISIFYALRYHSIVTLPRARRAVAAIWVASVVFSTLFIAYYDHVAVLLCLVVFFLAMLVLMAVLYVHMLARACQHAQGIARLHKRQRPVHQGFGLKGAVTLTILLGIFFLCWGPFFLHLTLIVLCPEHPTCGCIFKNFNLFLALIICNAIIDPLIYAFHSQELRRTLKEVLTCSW

Melanocortin receptor 3 = Melanocortin receptor 3 (Homo sapiens, UniProt P41968); experiment: Displacement of [125I]-NDP-alpha-MSH from human MC3R expressed in HEK293 cells by Topcount beta counter analysis; conditions: for Ki: read-out: pKi (converted)
Chain of Melanocortin receptor 3 (P41968 whole entry): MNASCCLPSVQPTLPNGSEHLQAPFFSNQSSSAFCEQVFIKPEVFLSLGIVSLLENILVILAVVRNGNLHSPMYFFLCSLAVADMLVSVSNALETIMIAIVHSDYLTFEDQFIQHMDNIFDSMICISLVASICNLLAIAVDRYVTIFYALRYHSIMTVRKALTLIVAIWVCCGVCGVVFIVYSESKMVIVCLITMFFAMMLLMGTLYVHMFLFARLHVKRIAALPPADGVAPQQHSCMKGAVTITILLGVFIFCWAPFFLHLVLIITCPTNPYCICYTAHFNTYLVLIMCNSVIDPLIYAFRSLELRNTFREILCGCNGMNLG

Melanocortin receptor 4 = Melanocortin receptor 4 (Homo sapiens, UniProt P32245); experiment: Displacement of [125I]-NDP-alpha-MSH from human MC4R expressed in CHO cells by Topcount beta counter analysis; conditions: for Ki: read-out: pKi (converted); for pKi: read-out: Ki
Chain of Melanocortin receptor 4 (P32245 whole entry): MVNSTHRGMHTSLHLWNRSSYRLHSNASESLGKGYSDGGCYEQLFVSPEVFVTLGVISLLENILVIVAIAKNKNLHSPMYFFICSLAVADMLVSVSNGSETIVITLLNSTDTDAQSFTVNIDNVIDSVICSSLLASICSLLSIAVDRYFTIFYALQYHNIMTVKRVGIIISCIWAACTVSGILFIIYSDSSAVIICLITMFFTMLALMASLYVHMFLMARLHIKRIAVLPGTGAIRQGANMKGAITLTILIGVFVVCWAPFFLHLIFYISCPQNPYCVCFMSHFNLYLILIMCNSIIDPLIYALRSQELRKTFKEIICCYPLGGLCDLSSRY

Melanocortin receptor 5 = Melanocortin receptor 5 (Homo sapiens, UniProt P33032); experiment: Displacement of [125I]-NDP-alpha-MSH from human MC5R expressed in CHO cells by Topcount beta counter analysis; conditions: for Ki: read-out: pKi (converted)
Chain of Melanocortin receptor 5 (P33032 whole entry): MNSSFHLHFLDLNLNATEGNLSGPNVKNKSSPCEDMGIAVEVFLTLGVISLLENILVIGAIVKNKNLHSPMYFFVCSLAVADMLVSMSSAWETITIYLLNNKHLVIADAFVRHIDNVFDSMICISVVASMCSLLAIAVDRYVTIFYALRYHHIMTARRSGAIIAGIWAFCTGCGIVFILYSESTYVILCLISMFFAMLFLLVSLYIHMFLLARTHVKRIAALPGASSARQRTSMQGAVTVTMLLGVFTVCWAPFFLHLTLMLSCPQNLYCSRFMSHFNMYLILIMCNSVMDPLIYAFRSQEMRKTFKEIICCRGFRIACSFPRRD

Compound | Ki (Melanocortin receptor 4) [nM] | pKi (Melanocortin receptor 4) | also measured
CC(C)C[C@H](NC(=O)[C@H](CCCCN)NC(=O)[C@H](Cc1ccccc1)NC(=O)[C@H](CCC(N)=O)NC(=O)[C@H](CSC(N)=O)NC(=O)[C@H](Cc1ccccc1)NC(=O)[C@H](CCCCN)NC(=O)CNC(=O)[C@H](CCCCN)NC(=O)[C@H](Cc1ccccc1)NC(=O)CNC(=O)[C@@H]1CCCN1C(=O)[C@@H]1CCCN1C(=O)[C@H](CCCCN)NC(=O)[C@H](CCC(N)=O)NC(=O)[C@H](CCCCN)NC(=O)[C@H](CCC(N)=O)NC(=O)[C@H](CSC(N)=O)NC(=O)[C@H](Cc1ccc(O)cc1)NC(=O)[C@H](Cc1cnc[nH]1)NC(=O)[C@H](Cc1ccccc1)NC(=O)[C@@H](N)CC(C)C)C(=O)N[C@@H](CCCNC(=N)N)C(=O)N1CCC[C@H]1C(=O)N1CCC[C@H]1C(=O)O (H-LFHYC(Carbamoyl)QKQKPPGFKGKFC(Carbamoyl)QFKLRPP-OH) | 12.6 |  | Ki [1]: 110 nM; Ki (Melanocortin receptor 3): 37.2 nM; Ki (Melanocortin receptor 5): 135 nM
CC(C)C[C@H](NC(=O)[C@H](CCC(=O)O)NC(=O)[C@H](Cc1ccccc1)NC(=O)[C@H](CCC(N)=O)NC(=O)[C@H](CCC(N)=O)N1C(=O)[C@@H](NC(=O)[C@H](CCCCN)NC(=O)CNC(=O)[C@H](CCCCN)NC(=O)[C@H](Cc2ccccc2)NC(=O)CNC(=O)[C@@H]2CCCN2C(=O)[C@@H]2CCCN2C(=O)[C@H](CCCCN)NC(=O)[C@H](CCC(N)=O)NC(=O)[C@H](CCCCN)NC(=O)[C@H](CCC(N)=O)NC(=O)[C@H](CCC(N)=O)NC(=O)[C@H](Cc2ccc(O)cc2)NC(=O)[C@H](Cc2c[nH]cn2)NC(=O)[C@H](Cc2ccccc2)NC(=O)[C@@H](N)CC(C)C)Cc2ccccc21)C(=O)N[C@@H](CCCNC(=N)N)C(=O)N1CCC[C@H]1C(=O)N1CCC[C@H]1C(=O)O | 89.1 | 7.04 | 
CC(C)C[C@H](NC(=O)[C@H](CCCCN)NC(=O)[C@H](Cc1ccccc1)NC(=O)[C@H](CCC(N)=O)NC(=O)[C@@H]1CSSC[C@H](NC(=O)[C@H](CCC(N)=O)NC(=O)[C@@H]2CSSC[C@H](NC(=O)[C@H](Cc3ccc(O)cc3)NC(=O)[C@H](Cc3c[nH]cn3)NC(=O)[C@H](Cc3ccccc3)NC(=O)[C@@H](N)CC(C)C)C(=O)N[C@@H](CCC(N)=O)C(=O)N2)C(=O)N2CCC[C@H]2C(=O)N2CCC[C@H]2C(=O)NCC(=O)N[C@@H](Cc2ccccc2)C(=O)N[C@@H](CCCCN)C(=O)NCC(=O)N[C@@H](CCCCN)C(=O)N[C@@H](Cc2ccccc2)C(=O)N1)C(=O)N[C@@H](CCCNC(=N)N)C(=O)N1CCC[C@H]1C(=O)N1CCC[C@H]1C(=O)O (H-LFHYCQCQCPPGFKGKFCQFKLRPP-OH; disulfide 5-7, 9-18) | 41.7 | 7.35 | pKi ([1]; read-out: Ki): 6.28; Ki [1]: 513 nM; pKi (Melanocortin receptor 3; read-out: Ki): 7.08; Ki (Melanocortin receptor 3): 69.2 nM; pKi (Melanocortin receptor 5; read-out: Ki): 7.52; Ki (Melanocortin receptor 5): 28.8 nM
H-FHYQQKQKPPGFKGKFQQFKLRPP-OH | 288 | 6.48 | 
H-LFHYQQKQKPPGFEGKFQQFKLRPP-OH | 257 | 6.58 | 
H-HYQQKQKPPGFKGKFQQFKLRPP-OH | 2040 | 5.66 | 
H-LFHYQQKQKPPGFKGAFQQFKLRPP-OH | 72.4 | 7.12 | 
H-LFHYQQKQKPPGFKGKFQQFKLRPP-NH2 | 8.13 | 8.05 | 
H-LFHYQQKQKPPGFKGKFQQFKLR-OH | 12.3 | 7.85 | 
H-LAHYQQKQKPPGFKGKFQQFKLRPP-OH |  | 6.63 | 
H-LFHYQQKQKPPGFAGKFQQFKLRPP-OH |  | 7.27 | 
H-LFHAQQKQKPPGFKGKFQQFKLRPP-OH |  | 6.95 | 
H-LFHYQQKQKPPGFKGEFQQFKLRPP-OH |  | 6.69 | 
